Experimental data from patent publication US20230346831A1, “METHODS FOR TREATING […] USING LOW DOSE CARBON MONOXIDE” (priority 2020, published 2023).

Key:
CYP1B1 = assay: Western blot analysis; type: cell-based, human; details: 250 ppm CO
Procedure: 1.5 × 10^6 cells were seeded in 6-cm cell culture plates with DMEM containing 10% FBS, 0.2 mM L-glutamine and 1% penicillin/streptomycin. Additionally, MCF7/TGL/pQ was cultured in media containing 0.5 µgml^-1 puromycin and 25 mM HEPES. After 16 hours of incubation, cells were lysed with RIPA buffer (0.1% SDS, 1% TritonX-100, 0.5% sodium deoxycholate, 25 mM Tris pH 8.0, 150 mM NaCl, and 1 mM EDTA) supplemented with a protease inhibitor mixture and PhosSTOP (Roche, Basel, Switzerland). Proteins were quantified with Bradford assay (Bio-Rad, Hercules CA). Equal amounts of proteins were separated with SDS-PAGE and transferred to nitrocellulose membranes. To visualize equal protein loading, blots were stained with Ponceau S. Blots were incubated in 5% non-fat milk in TBST, probed with primary antibodies to CYP1B1 (1:1,000, Abcam, Cambridge, United Kingdom, Cat. No. 32649), HO-1 (1:1,000, Santa Cruz Biotechnology, Dallas, TX, Cat. No. 136960), BACH1 (1:1,000, ABclonal, Woburn, MA, Cat. No. A5393), E-cadherin (1:1,1000, BD Biosciences (Cat. No. 610181), San Jose, CA), α-tubulin (1:1,000, Sigma (Cat. No. T5168), St. Louis MO), and vimentin (1:1,000, Cell Signaling Tech (Cat. No. 5741), Danvers, MA), and then were incubated with horseradish peroxidase-conjugated secondary antibodies. Protein bands were visualized by enhanced chemical luminescence (Pierce, Dallas, TX). […]

[1] = system: non-malignant BJ fibroblasts; assay: in vitro transwell migration assay; type: cell-based; details: 250 ppm CO
Procedure: Migration of different cancer cells under control air or 250 ppm CO treatment with or without supplement of 30 µM hemin was determined using in vitro transwell migration chamber with a serum gradient. Indicated cell lines were seeded into the transwell inserts. 16 hours later, cells on the top of the upper chambers were removed, and cells on the bottom surface of the transwell inserts were fixed, stained with crystal violet, and counted from eight randomly picked fields in three independent experiments. Error bars represent SEM. *: P < 0.05, two-sided t-test. Scale bar, 100 µm. […] Cells were seeded in the upper chamber of 8-µm porous polycarbonate membranes with DMEM containing 0% or 1% FBS, 0.2 mM L-glutamine, 1% penicillin/streptomycin. The lower chambers were filled with DMEM containing 10% or 20% FBS, 0.2 mM L-glutamine, and 1% penicillin/streptomycin (please see Table 1).
6.5 mm Transwell with 8.0 µm Pore Polycarbonate Membrane Insert (Corning, NY, Cat. No. 3422) was used for the cell migration assay (FIG. 1J). After 16 hours of incubation, cells migrated to the opposite side of the upper chambers were fixed with 4% paraformaldehyde, stained with 0.2% crystal violet for 30 min and counted in five fields under × 20 magnification. In parallel, cells were seeded on 24-well plates for proliferation assay. […] The optical density was measured at 595 nm (OD595). […]

Which CYP1B1 protein levels (CYP1B1; MCF7 and MDA-MB-231 cells) does the source give for [C-]#[O+] [CO, Carbon monoxide] here?
Its CYP1B1 protein levels is “significantly reduced”.

What about the CYP1B1 protein levels (CYP1B1; PDAC 8988T cells) of the same molecule?
The CYP1B1 protein levels was “reduced”.

What about the migration [1] of the same molecule?
The migration was “only slightly reduced”.
